Where “and” joins values, the source holds several entries; their conditions need not be identical. Equal entries are not always repeated.
How the values were obtained:
Experiment in all cases: biochemical
Parameters in all cases: endogenous in cells; host or cells: K562 cell extract; species or system K562 (extract); replicate k of n = 2 (each experiment ID is one independent experiment; two experiment IDs per compound)
Details in all cases: read-out: KDapp
LYN = LYN (Homo sapiens, UniProt P07948)
MYLK3 = target: T1, MYLK3 (Homo sapiens, UniProt Q32MK0)
T1 sequence (Q32MK0 1-819): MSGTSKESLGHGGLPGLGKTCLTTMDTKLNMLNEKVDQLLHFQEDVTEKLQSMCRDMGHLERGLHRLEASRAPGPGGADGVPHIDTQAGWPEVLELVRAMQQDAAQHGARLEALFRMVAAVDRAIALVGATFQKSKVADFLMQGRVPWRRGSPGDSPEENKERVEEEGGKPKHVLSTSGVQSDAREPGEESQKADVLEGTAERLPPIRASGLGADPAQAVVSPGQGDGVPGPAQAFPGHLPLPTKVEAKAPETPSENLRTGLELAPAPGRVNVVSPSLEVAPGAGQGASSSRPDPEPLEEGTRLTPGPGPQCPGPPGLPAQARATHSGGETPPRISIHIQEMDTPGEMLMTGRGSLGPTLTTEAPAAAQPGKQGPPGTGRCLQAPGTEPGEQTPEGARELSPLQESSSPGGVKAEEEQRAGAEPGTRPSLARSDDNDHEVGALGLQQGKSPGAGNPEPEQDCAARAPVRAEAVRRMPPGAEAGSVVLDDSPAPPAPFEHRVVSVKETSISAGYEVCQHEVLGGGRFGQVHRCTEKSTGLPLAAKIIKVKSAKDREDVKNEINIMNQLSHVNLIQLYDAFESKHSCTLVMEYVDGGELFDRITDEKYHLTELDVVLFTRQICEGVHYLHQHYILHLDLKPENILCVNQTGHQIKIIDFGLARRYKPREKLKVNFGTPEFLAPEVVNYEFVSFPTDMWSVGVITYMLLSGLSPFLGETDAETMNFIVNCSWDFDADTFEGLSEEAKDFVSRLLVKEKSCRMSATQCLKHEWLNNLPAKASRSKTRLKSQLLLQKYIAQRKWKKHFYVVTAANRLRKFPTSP

MARK3 = MARK3 (Homo sapiens, UniProt P27448)
MAP3K2 = target: T2, MAP3K2 (Homo sapiens, UniProt Q9Y2U5)
T2 sequence (Q9Y2U5 1-619): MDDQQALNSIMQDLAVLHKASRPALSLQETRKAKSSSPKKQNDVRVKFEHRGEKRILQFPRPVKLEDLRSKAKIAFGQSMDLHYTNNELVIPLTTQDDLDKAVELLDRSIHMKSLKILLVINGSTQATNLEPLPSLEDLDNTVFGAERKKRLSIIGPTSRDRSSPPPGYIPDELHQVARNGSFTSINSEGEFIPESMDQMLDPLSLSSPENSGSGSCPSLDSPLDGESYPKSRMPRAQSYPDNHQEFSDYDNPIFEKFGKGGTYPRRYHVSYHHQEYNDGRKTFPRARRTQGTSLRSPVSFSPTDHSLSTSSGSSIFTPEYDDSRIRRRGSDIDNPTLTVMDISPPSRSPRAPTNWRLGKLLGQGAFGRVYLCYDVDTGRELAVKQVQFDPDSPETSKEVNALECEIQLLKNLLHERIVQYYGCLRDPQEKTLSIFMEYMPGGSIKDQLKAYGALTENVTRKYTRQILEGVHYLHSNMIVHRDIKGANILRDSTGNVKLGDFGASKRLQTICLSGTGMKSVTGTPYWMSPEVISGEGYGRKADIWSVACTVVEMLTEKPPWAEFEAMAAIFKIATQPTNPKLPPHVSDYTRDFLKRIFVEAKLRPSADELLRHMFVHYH

CDK7 = CDK7 (Homo sapiens, UniProt P50613)
MARK2 = MARK2 (Homo sapiens, UniProt Q7KZI7)
NEK2 = target: T3, NEK2 (Homo sapiens, UniProt P51955)
T3 sequence (P51955 1-445): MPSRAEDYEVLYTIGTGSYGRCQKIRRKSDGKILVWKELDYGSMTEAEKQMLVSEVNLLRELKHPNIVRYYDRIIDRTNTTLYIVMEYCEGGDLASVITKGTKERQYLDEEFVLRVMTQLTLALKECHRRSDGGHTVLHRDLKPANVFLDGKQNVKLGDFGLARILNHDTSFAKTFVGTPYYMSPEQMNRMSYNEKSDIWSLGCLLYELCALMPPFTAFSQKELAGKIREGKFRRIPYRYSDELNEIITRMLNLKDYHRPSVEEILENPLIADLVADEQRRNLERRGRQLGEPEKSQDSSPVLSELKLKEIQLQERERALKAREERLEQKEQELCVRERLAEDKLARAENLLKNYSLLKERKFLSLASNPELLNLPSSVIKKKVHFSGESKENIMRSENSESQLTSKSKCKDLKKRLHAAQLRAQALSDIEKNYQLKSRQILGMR

DYRK1A = DYRK1A (Homo sapiens, UniProt Q13627)

Chain of LYN (P07948 whole entry): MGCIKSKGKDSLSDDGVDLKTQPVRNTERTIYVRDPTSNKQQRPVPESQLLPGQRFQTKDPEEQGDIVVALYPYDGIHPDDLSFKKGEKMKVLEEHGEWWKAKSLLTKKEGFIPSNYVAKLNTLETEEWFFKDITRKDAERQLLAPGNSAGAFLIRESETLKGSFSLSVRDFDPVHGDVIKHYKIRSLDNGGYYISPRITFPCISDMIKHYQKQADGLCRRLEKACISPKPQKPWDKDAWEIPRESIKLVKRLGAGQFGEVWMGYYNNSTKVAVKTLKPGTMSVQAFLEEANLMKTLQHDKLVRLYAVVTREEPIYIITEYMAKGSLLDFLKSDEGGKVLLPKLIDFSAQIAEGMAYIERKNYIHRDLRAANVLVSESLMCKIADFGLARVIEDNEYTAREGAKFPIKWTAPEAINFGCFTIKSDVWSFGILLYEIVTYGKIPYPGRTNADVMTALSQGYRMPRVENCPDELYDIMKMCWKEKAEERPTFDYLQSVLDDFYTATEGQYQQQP
Chain of MARK2 (Q7KZI7 whole entry): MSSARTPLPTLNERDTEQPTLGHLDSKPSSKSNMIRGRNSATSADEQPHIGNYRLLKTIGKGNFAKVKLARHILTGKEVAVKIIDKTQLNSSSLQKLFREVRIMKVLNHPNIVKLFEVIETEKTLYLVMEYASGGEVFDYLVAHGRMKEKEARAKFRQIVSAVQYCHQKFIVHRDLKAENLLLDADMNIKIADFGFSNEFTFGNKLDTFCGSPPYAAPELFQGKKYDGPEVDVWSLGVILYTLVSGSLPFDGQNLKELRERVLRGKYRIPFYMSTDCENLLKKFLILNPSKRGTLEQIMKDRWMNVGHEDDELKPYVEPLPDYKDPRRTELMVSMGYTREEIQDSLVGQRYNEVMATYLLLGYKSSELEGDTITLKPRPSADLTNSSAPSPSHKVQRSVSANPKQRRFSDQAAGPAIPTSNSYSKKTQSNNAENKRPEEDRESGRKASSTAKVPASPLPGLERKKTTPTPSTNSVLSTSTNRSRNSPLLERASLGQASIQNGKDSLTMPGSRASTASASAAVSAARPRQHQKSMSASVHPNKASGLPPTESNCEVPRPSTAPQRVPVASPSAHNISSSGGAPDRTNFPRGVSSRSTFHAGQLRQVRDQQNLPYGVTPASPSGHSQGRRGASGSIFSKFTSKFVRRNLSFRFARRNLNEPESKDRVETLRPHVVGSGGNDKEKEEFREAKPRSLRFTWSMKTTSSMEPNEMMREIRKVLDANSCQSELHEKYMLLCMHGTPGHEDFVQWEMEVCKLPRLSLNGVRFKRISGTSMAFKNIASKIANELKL
Chain of MARK3 (P27448 whole entry): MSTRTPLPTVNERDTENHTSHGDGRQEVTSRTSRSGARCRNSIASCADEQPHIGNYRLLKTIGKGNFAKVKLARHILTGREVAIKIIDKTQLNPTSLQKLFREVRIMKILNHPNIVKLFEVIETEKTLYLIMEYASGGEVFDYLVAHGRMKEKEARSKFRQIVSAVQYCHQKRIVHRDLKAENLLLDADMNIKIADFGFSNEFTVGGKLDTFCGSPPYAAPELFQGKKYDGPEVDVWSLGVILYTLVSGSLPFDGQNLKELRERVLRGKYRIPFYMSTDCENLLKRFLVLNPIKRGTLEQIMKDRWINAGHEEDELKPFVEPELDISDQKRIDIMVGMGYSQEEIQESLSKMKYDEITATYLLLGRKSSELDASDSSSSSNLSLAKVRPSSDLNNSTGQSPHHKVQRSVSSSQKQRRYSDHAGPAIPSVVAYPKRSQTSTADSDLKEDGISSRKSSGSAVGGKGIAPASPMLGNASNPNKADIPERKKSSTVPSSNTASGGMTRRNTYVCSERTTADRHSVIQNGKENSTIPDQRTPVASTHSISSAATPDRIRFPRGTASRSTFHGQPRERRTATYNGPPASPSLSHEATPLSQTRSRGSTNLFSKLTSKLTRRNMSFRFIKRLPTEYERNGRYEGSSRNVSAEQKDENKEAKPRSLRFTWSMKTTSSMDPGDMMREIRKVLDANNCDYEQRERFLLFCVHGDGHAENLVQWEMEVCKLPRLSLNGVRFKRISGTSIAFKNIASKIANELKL
Chain of CDK7 (P50613 whole entry): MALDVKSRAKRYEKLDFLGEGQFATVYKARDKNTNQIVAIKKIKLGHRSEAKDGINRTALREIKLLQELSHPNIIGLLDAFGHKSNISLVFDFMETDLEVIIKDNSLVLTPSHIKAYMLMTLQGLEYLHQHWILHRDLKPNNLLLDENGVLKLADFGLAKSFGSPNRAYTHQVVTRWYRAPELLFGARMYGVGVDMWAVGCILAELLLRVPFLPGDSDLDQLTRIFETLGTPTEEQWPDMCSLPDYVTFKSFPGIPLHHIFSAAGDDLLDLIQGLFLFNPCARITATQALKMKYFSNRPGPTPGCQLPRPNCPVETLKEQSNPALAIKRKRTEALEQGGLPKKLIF

| Structure (SMILES) | Kd (LYN) | Kd (MYLK3) | Kd (MARK3) | Kd (MAP3K2) [µM] | Kd (CDK7) | Kd (MARK2) | Kd (NEK2) | Kd (DYRK1A) |
| --- | --- | --- | --- | --- | --- | --- | --- | --- |
| CN1CCN(c2ccc(Nc3ncc(C#N)c(Nc4ccccc4C(N)=O)n3)cc2)CC1.Cl [TCMDC-134116] | 0.134 µM and 0.167 µM | 0.056 µM and 0.0778 µM | 0.0666 µM and 0.0777 µM | 0.318 | 0.422 µM and 0.494 µM | 0.121 µM and 0.115 µM | 0.269 µM and 0.118 µM | 0.286 µM and 0.263 µM |
| Cl.NCC1(c2nc(-c3ccc(Cl)c(O)c3)c(-c3ccncc3)[nH]2)CCCCC1 [TCMDC-141154] | 0.621 µM |  |  | 0.779 |  |  |  |  |
| CN(C)CC(O)COc1ccc(Nc2ncc([N+](=O)[O-])c(Nc3ccccc3O)n2)cc1.O=C(O)C(F)(F)F (stereo not shown) [TCMDC-141399] |  | 1.76 µM and 1.51 µM | 5.55 µM and 3.66 µM |  | 1.43 µM and 4.62 µM | 3.51 µM | 3.06 µM and 1.98 µM | 2.86 µM |

From article PMC4774911, “Biochemical Screening of Five Protein Kinases from Plasmodium falciparum against 14,000 Cell-Active Compounds” (PLoS ONE, 2016)
